Experimental data published in DBAASP.
Values after ≈ are worked out from the molar mass of the structure shown.

Key:
Experiment in all cases: ≥ marks a high value that may be exact or a test limit, other limits are often not marked, values filed in µg/mL are converted to µM
Streptococcus mutans = test system: Streptococcus mutans
[1] = test system: Escherichia coli ATCC 25922
[2] = test system: Klebsiella pneumoniae ATCC 13883
[3] = test system: Pseudomonas aeruginosa PAO1
[4] = test system: Staphylococcus aureus USA 300
Bacillus subtilis = test system: Bacillus subtilis
[5] = test system: Candida albicans F7-39/IDE99
Escherichia coli B = test system: Escherichia coli B
Pseudomonas aeruginosa = test system: Pseudomonas aeruginosa
Staphylococcus aureus = test system: Staphylococcus aureus
[6] = test system: Bacillus subtilis ATCC 23857
Escherichia coli ML-35 = test system: Escherichia coli ML-35
[7] = test system: Staphylococcus aureus ATCC 29213
[8] = test system: Staphylococcus epidermidis ATCC 12228

## CC(C)C[C@H](NC(=O)[C@H](C)NC(=O)[C@H](Cc1cnc[nH]1)NC(=O)[C@H](CC(C)C)NC(=O)[C@H](CC(C)C)NC(=O)[C@H](Cc1cnc[nH]1)NC(=O)[C@@H](NC(=O)[C@H](C)N)[C@@H](C)O)C(=O)N[C@@H](CCC(N)=O)C(=O)N[C@@H](CCCN=C(N)N)C(=O)N[C@@H](Cc1ccccc1)C(N)=O [ATHLLHALQRF]
Streptococcus mutans
  MIC: ≥ 191 µM

## CC(C)C[C@H](NC(=O)[C@H](CC(C)C)NC(=O)CNC(=O)[C@H](CC(C)C)NC(=O)[C@H](CC(C)C)NC(=O)[C@H](CO)NC(=O)[C@H](CC(C)C)NC(=O)[C@H](CC(C)C)NC(=O)[C@H](CO)NC(=O)[C@H](CC(C)C)NC(=O)[C@H](CC(C)C)NC(=O)[C@H](CCCCN)NC(=O)CN)C(N)=O [GKLLSLLSLLGLL]
[1]
  MIC: > 25 µM
[2]
  MIC: 25 µM (≈ 33.5 µg/mL)
[3]
  MIC: > 25 µM
[4]
  MIC: 3.1 µM (≈ 4.15 µg/mL)

## CC(C)C[C@H](NC(=O)[C@H](CC(C)C)NC(=O)[C@H](CCCCN)NC(=O)CNC(=O)[C@H](CC(C)C)NC(=O)[C@H](CC(C)C)NC(=O)[C@H](CO)NC(=O)[C@H](CC(C)C)NC(=O)[C@H](CC(C)C)NC(=O)[C@H](CO)NC(=O)[C@H](C)NC(=O)[C@H](CC(C)C)NC(=O)CN)C(N)=O [GLASLLSLLGKLL]
[1]
  MIC: > 25 µM
[2]
  MIC: 25 µM (≈ 32.4 µg/mL)
[3]
  MIC: > 25 µM
[4]
  MIC: 0.78 µM (≈ 1.01 µg/mL)

## CC(C)C[C@H](NC(=O)[C@H](CC(C)C)NC(=O)[C@H](CCCCN)NC(=O)CNC(=O)[C@H](C)NC(=O)[C@H](CC(C)C)NC(=O)[C@H](CO)NC(=O)[C@H](CC(C)C)NC(=O)[C@H](CC(C)C)NC(=O)[C@H](CO)NC(=O)[C@H](CC(C)C)NC(=O)[C@H](CC(C)C)NC(=O)CN)C(N)=O [GLLSLLSLAGKLL]
[1]
  MIC: 3.1 µM (≈ 4.02 µg/mL)
[2]
  MIC: 3.1 µM (≈ 4.02 µg/mL)
[3]
  MIC: 12.5 µM (≈ 16.2 µg/mL)
[4]
  MIC: 0.78 µM (≈ 1.01 µg/mL)

## CC[C@H](C)[C@H](NC(=O)[C@H](C)NC(=O)[C@H](C)NC(=O)[C@H](CC(C)C)NC(=O)[C@@H](NC(=O)[C@H](CCCCN)NC(=O)[C@H](CCCNC(=N)N)NC(=O)[C@@H]1CCCN1C(=O)[C@H](CC(C)C)NC(=O)CN)[C@@H](C)CC)C(=O)N[C@@H](C)C(=O)N[C@@H](CCCCN)C(=O)N[C@@H](CCCCN)C(=O)N[C@@H](CCCCN)C(=O)NCC(=O)N[C@@H](CCCCN)C(=O)N[C@@H](C)C(=O)N[C@@H](CCCCN)C(=O)NCC(=O)N1CCC[C@H]1C(=O)N[C@@H](CC(C)C)C(=O)N[C@@H](CCCCN)C(=O)N[C@@H](CC(C)C)C(=O)N[C@H](C(=O)N[C@@H](C)C(=O)N[C@@H](CCCCN)C(=O)N[C@@H](C)C(=O)O)C(C)C [GLPRKILAAIAKKKGKAKGPLKLVAKA]
Bacillus subtilis
  MIC: 12 µM (≈ 33.2 µg/mL)
[5]
  MIC: ≥ 100 µM
Escherichia coli B
  MIC: ≥ 100 µM
Pseudomonas aeruginosa
  MIC: > 100 µM
Staphylococcus aureus
  MIC: > 100 µM

## CC[C@H](C)[C@@H]1NC(=O)[C@H](C)NC(=O)[C@@H](NC(=O)[C@H](CC(C)C)NC(=O)[C@@H](NC(=O)[C@H](CCCCN)NC(=O)[C@H](CCCN=C(N)N)NC(=O)[C@@H]2CCCN2C(=O)[C@H](CC(C)C)NC(=O)CN)[C@@H](C)CC)CSSC[C@@H](C(=O)N[C@@H](CCCCN)C(=O)NCC(=O)N2CCC[C@H]2C(=O)N[C@@H](CC(C)C)C(=O)N[C@@H](CCCCN)C(=O)N[C@@H](CC(C)C)C(=O)N[C@H](C(=O)N[C@H]2CSSC[C@@H](C(=O)O)NC(=O)[C@H](CCCCN)NC2=O)C(C)C)NC(=O)[C@H](CCCCN)NC(=O)CNC(=O)[C@H](CCCCN)NC(=O)[C@H](CCCCN)NC(=O)[C@H](CCCCN)NC(=O)[C@H](C)NC1=O [GLPRKILCAIAKKKGKCKGPLKLVCKC]
Bacillus subtilis
  MIC: 4 µM (≈ 11.6 µg/mL)
[5]
  MIC: ≥ 100 µM
Escherichia coli B
  MIC: ≥ 100 µM
Pseudomonas aeruginosa
  MIC: > 100 µM
Staphylococcus aureus
  MIC: > 100 µM

## CC[C@H](C)[C@H](N)C(=O)N[C@@H](CC(C)C)C(=O)NCC(=O)N[C@H](C(=O)N[C@H](C(=O)N[C@@H](CC(C)C)C(=O)NCC(=O)N1CCC[C@H]1C(=O)N[C@@H](CC(C)C)C(=O)N[C@@H](CCCCN)C(=O)NCC(=O)N[C@@H](CC(C)C)C(N)=O)[C@@H](C)CC)[C@@H](C)O [ILGTILGPLKGL]
[6]
  MIC: ≥ 256 µM
[1]
  MIC: > 256 µM
Escherichia coli ML-35
  MIC: ≥ 256 µM
[7]
  MIC: > 256 µM
[8]
  MIC: > 256 µM
